How the values were obtained:
[1] = test system: CD34+ HSPCs; test: Cell growth and viability (trypan blue) of edited CD34+ HSPCs during differentiation (Example 5); settings: day 0 to day 18 post-editing; inhibitor 1 or 3 μM, i53 1 μg mRNA; data not shown
Description: Briefly, frozen CD34+ HSPCs isolated from Plerixafor mobilized peripheral blood, obtained from healthy human donors were thawed. The cells were seeded in CD34 cell media at a cell density of 2×10^5 cells/mL. Cells were cultured at 37° C. under normoxic conditions (i.e., oxygen 20%). Gene-editing was performed following two days of in vitro culture. For editing, 5×10^5 CD34+ HSPCs were electroporated with RNP containing 200 μg/ml Cas9 and 200 μg/ml T107 sgRNA. […] The cells were transduced with AAV.310, 1 hour prior to electroporation, at a dose of 10,000 MOI. The cells were plated in CD34 cell medium containing Compound 296 or Compound 984 immediately following the electroporation, at a concentration of 1 μM or 3 μM for 48 hours. […] Post electroporation cells were resuspended in CD34 cell medium at a density of 2-5×10^5 cells/ml and incubated at 37° C. for 48 hours.
Following editing, cells were differentiated to erythrocytes. Briefly, cells were plated in fresh CD34 media at a density of 2×10^5 cells/mL, and re-plated at similar density in fresh CD34 media on days 3 and 5 post-editing. On day 7 and 10 post-editing, the cells were incubated in Phase II media at a density of 2.5×10^5 and 1×10^6 cells/mL respectively. On day 12 post-editing, the cells were incubated in Phase III media at a density of 1×10^6 cells/mL. On day 14 cells were plated at a density of 2×10^6 cells/ml in Phase III media and maintained till day 18 at 37° C. Cell growth was measured at various time points between day 0 and day 18 post-editing, and the percentage of viable cells was measured by staining with tryphan blue.

[2] = test system: NBSGW mice; test: In vivo engraftment and persistence of gene-edits of CD34+ HSPCs edited with T107 RNP, AAV and inhibitors (Example 6); set-up: species or system mouse; settings: 16 weeks, with or without inhibitor
Description: Following two days of in vitro culture, HSPCs were administered by intravenous injection to NBSGW mice at a dose of 0.5×10^6 cells per mouse. Recipient mice were treated with sublethal irradiation (100 cGy) at 1 day prior to administration of HSPCs.
Blood and bone marrow were extracted at 16 weeks following HSPC administration and were evaluated for presence of human hematopoietic cells using flow cytometry as described in Example 2. Additionally, the lineage of human CD45+ cells was determined using markers for human B cells, T cells, myeloid cells, and HSPCs as described in Example 2.
The long term persistence of gene-edited (in HBB gene) HSPCs was evaluated in genomic DNA extracted from mouse bone marrow collected at 16 weeks. The frequency of donor template-encoded gene-edits incorporated in HBB by HDR and the frequency of INDELs at the T107 cut site were quantified by NGS, and are shown in FIG. 7I and FIG. 7J respectively.

[3] = test system: CD34+ HSPCs; test: Globin and hemoglobin analysis by HPLC on day 18 of differentiation (Example 5); type: cell-based, human; settings: T107 RNP+AAV.310 alone or combined with the inhibitor
Description: (§1) Following editing, cells were differentiated to erythrocytes.
Additionally, on day 18 post-editing, expression of globin monomers was assessed in differentiated cells by HPLC as described in Example 3. […] Accordingly, the editing was sufficient to both introduce the SCD mutation in HBB and result in expression of sickle globin.
Furthermore, production of hemoglobin tetramers was also evaluated by HPLC. The analysis included quantification of HbS tetramer containing sickle-globin (α2β(E6V)2), HbF tetramer (α2γ2), HbA (α2β2), and HbA2 (α2δ2) produced by edited cells. […] Thus, the editing was also sufficient to alter hemoglobin output following in vitro differentiation.

[4] = test system: CD34+ HSPCs; test: Erythrocyte functionality: enucleation and cell-surface markers by flow cytometry (Example 5); type: cell-based, human; settings: T107 RNP+AAV.310 alone or combined with the inhibitor
Description: as §1
The ability of edited cells to differentiate to functional erythrocytes was assessed by determining expression of erythrocyte-associated cell surface markers and enucleation using flow cytometry on day 12 and 18 post editing. Briefly, 4×10^5 cells were obtained, and half were stained for erythrocyte cell-surface markers and half were used for detection of enucleation. For staining cell-surface markers, the cells were incubated in PBS containing 1% human serum albumin (PBS-A) and an antibody cocktail of anti-CD233(BRIC6-Band3)-FITC, anti-CD71-PE, anti-CD235a(GlyA)-PE/Cy7, and anti-CD49d (α4)-VioBlue. For detection of enucleation, 2 drops of NucRed nuclear staining reagent was added to 1 mL PBS-A, and 100 μL was added to plated cells. Following incubation, both cell samples were labeled with Sytox Blue solution (1:1000 dilution in PBS-A) for live/dead analysis. Samples were then assessed by flow cytometry

[5] = test system: HBB gene locus in CD34+ HSPCs; test: HDR efficiency with DNA-PK inhibitors for editing the HBB gene in CD34+ HSPCs; NGS (Example 4); type: cell-based, human
Description: The cells were transduced with AAV donor template for 1 hour at 37° C. prior to electroporation. AAV-encoded homology donor template referred to as “AAV.310”, which is identified by sequence in Table 8. The AAV.310 donor template encodes a SCD mutation, specifically valine at the 6th codon downstream the HBB start codon (E6V). The cells were treated with AAV at a dose of 10,000 MOI.
Edited cells were evaluated for viability using trypan blue, and for incorporation of gene-edits at 2 days post-electroporation. The efficiency of HDR repair for introducing an E6V mutation in the HBB gene was quantified by NGS assay as described in Example 1, and the frequency of INDELs induced at the T107 cut site was also evaluated by NGS analysis.
The INDELs species identified in edited cells were further evaluated to determine frequency of repair by NHEJ or MMEJ repair pathways. An INDEL of ±1 nt was considered due to NHEJ repair; a deletion of −9 nt was considered due to MMEJ repair based on the microhomology present on either side of the T107 cut site. Based on percentage of total reads corresponding to these INDEL species, the ratio of gene edits due to NHEJ and MMEJ repair was evaluated. […] Thus, reduced frequency of INDELs with treatment of compound 296 or i53 is largely due to suppression of the NHEJ repair pathway.

[6] = T107 RNP + AAV.310 + 0.012 μM compound, 48 hours
[7] = T107 RNP + AAV.310 + 0.037 μM compound, 48 hours
[8] = T107 RNP + AAV.310 + 0.04 μM compound, 48 hours
[9] = T107 RNP + AAV.310 + 3.3 μM compound, 48 hours
[10] = T107 RNP + AAV.310 + 10 μM compound, 48 hours
[11] = T107 RNP + AAV.310 + i53 (1 μg mRNA)

Molecule: [2H]c1nc(C)nc([2H])c1-c1cc(NC[C@@H](C)c2cccc3c(C(=O)NC)ccnc23)ncn1 [Compound 984]
- cell growth over time or percent viability vs T107 RNP+AAV.310 edited cells [1]: No difference
- percent chimerism in mouse bone marrow and blood [2]: comparable
- HbA production compared to control cells [3]: decreased
- HbS production compared to control cells [3]: increased
- expression of sickle-globin compared to control cells [3]: increased
- levels of enucleation vs control cells [4]: comparable
- % HDR [5, 6]: 44%
- % INDELs [5, 6]: 39%
- % HDR [5, 7]: 51%
- % INDELs [5, 7]: 36%
- % HDR [5, 8]: 42%
- % INDELs [5, 8]: 40%
- % HDR [5, 9]: 49%
- % INDELs [5, 9]: 30%
- % HDR [5, 10]: 48%
- % INDELs [5, 10]: 33%
- reduction of the frequency of INDELs at the T107 cut site compared to control cells ([5]; T107 RNP+AAV.310 with DNA-PK inhibitor): approximately 1.6 fold

Molecule: i53: polypeptide inhibitor of 53BP1 (SEQ ID NO: 11), introduced as an mRNA-encoded protein (ORF SEQ ID NO: 10)
- cell growth over time or percent viability vs T107 RNP+AAV.310 edited cells [1]: No difference
- percent chimerism in mouse bone marrow and blood [2]: comparable
- HbA production compared to control cells [3]: decreased
- HbS production compared to control cells [3]: increased
- expression of sickle-globin compared to control cells [3]: increased
- levels of enucleation vs control cells [4]: comparable
- % HDR [5, 11]: 35%
- % INDELs [5, 11]: 42%
- INDEL species due to MMEJ repair (deletion of −9 nt) ([5]; T107 RNP+AAV.310, Compound 296 at 10 μM, i53 at 1 μg mRNA): did not affect

Source: patent publication US12497614B2, “Compositions and methods for editing beta-globin for treatment of hemaglobinopathies” (Vertex Pharmaceuticals Incorporated, priority 2020, dated 2025)
